SMILES strings stand for the structures.

The nature of this experiment: ABTS assay, cell-free in vitro test of antioxidative capacity. Type of experiment: biochemical. An excerpt: ABTS assay is a cell-free in vitro test for evaluation of antioxidative capacity (literature: Re R, Pellegrini N, Proteggente A, Pannala A, Yang M, Rice-Evans C. 1999. “Antioxidant activity applying an improved ABTS radical cation decolorization assay”; Free Radic. Biol. Med. 26: 1231-7). The assay uses the intrinsic colouration of a solution prepared with the cationic radical 2,2′-azinobis(3-ethylbenzothiazoline-6-sulfonic acid) (ABTS+) and potassium persulfate, which is decolourized by addition of antioxidants (reduction of the cationic radical). This decolouration can be measured photometrically at 734 nm. The test is carried out in 96-well microtitre plates. […] All the ABTS test results result from two independent experiments and are presented as means with the associated deviation from the mean.
In order to test whether the antioxidative activity of styrylresorcinol (formula 3; CARN 85-27-8; 4-(1-phenylethyl)-1,3-dihydroxybenzene) is adversely influenced by the presence of significant amounts of oily phase, in a further experiment the antioxidative capacity of two products comprising 30 percent by weight of 2-ethylhexyl isononanoate (INCI Ethylhexyl Isononanoate; product A) and, respectively, 5 percent by weight of 2-ethylhexyl isononanoate (INCI Ethylhexyl Isononanoate; product B) was determined with the aid of ABTS assay.

For `CC(c1ccccc1)c1ccc(O)cc1O` (stereo not drawn) [Styrylresorcinol, 4-(1-phenylethyl)-1,3-dihydroxybenzene], the “reduction in the antioxidative capacity compared with the oil-free reference sample” value (5% of oily phase) is 1.6%. Besides, the “deterioration in the antioxidative capacity compared with the oil-free reference sample” value (30% of oily phase, 0.01% styrylresorcinol) came to 13.5%. Moreover, the “antioxidative capacity greater than that of the reference substance alpha-tocopherol, factor” value (ABTS, versus alpha-tocopherol) is reported as roughly 2. The antioxidative capacity came out at 79.4% (ethanolic solution containing 0.01% styrylresorcinol with 30% of oily phase (product A)), 91.35 (mixture according to the invention comprising only 5% of oily phase (product B)) and 92.9% (oil-free reference sample containing only 0.01% styrylresorcinol (product C)).

(Values after patent publication US20090162305A1, “FORMULATIONS OF LOW OIL CONTENT COMPRISING […] DERIVATIVES” (SYMRISE GmbH & Co. KG, priority 2006, published 2009).)
